# Test results published in patent publication US6897210B2, “Quinazoline derivatives and pharmaceutical compositions containing them” (Zeneca Limited, priority 1996, dated 2005).
# Structures can show the parent of a compound that is named as a salt.
# Test system: VEGF receptor tyrosine kinase (Flt, KDR)
# Assay: In vitro receptor tyrosine kinase inhibition test (VEGF receptor)
# Assay type: biochemical
# Conditions: VEGF receptor tyrosine kinase compared with EGF receptor tyrosine kinase
# Excerpt: (a) In Vitro Receptor Tyrosine Kinase Inhibition Test
# This assay determines the ability of a test compound to inhibit tyrosine kinase activity. […] These may then be expressed in a suitable expression system to obtain polypeptide with tyrosine kinase activity. […] This recombinant construct was co-transfected into insect cells (for example Spodoptera frugiperda 21(Sf21)) with viral DNA (eg Pharmingen BaculoGold) to prepare recombinant baculovirus.
# For expression of cFlt tyrosine kinase activity, Sf21 cells were infected with plaque-pure cFlt recombinant virus at a multiplicity of infection of 3 and harvested 48 hours later. […] The suspension was centrifuged for 10 minutes at 13,000 rpm at 4° C., the supernatant (enzyme stock) was removed and stored in aliquots at −70° C. Each new batch of stock enzyme was titrated in the assay by dilution with enzyme diluent (100 mM Hepes pH 7.4, 0.2 mM sodium orthovanadate. 0.1% v/v Triton X100, 0.2 mM dithiothreitol). For a typical batch, stock enzyme is diluted 1 in 2000 with enzyme diluent and 50 μl of dilute enzyme is used for each assay well.
# A stock of substrate solution was prepared from a random copolymer containing tyrosine, for example Poly (Glu, Ala, Tyr) 6:3:1 (Sigma P3899), stored as 1 mg/ml stock in PBS at −20° C. and diluted 1 in 500 with PBS for plate coating.
# On the day of the assay the substrate solution was discarded and the assay plate wells were washed once with PBST (PBS containing 0.05% v/v Tween 20) and once with 50 mM Hepes pH7.4.
# Test compounds were diluted with 10% dimethylsulphoxide (DMSO) and 25 μl of diluted compound was transferred to wells in the washed assay plates. “Total” control wells contained 10% DMSO instead of compound. Twenty five microliters of 40 mM manganese(II)chloride containing 8 μM adenosine-5′-triphosphate (ATP) was added to all test wells except “blank” control wells which contained maganese(II)chloride without ATP. To start the reactions 50 μl of freshly diluted enzyme was added to each well and the plates were incubated at room temperature for 20 minutes. The liquid was then discarded and the wells were washed twice with PBST. […] Plates were then incubated for 20-60 minutes at room temperature until the optical density value of the “total” control wells, measured at 405 nm using a plate reading spectrophotometer, was approximately 1.0.
row,SMILES,activity against VEGF and EGF receptor tyrosine kinases
1,"COCCOCCOc1cc2ncnc(Nc3ccc(Cl)cc3F)c2cc1OC.Cl [Example 5, 4-(4-chloro-2-fluoroanilino)6-methoxy-7-(2(2-methoxyethoxy)ethoxy)quinazoline hydrochloride]",substantially equivalent activity
2,"COc1cc2c(Nc3ccc(Cl)cc3F)ncnc2cc1OCCNC(=O)OC(C)(C)C [Example 34, 7-(2-[N-tert-butoxycarbonylamino]ethoxy)4-(4-chloro-2-fluoroanilino)6-methoxyquinazoline]",substantially equivalent activity
3,"COc1cc2c(Nc3ccc(Br)cc3F)ncnc2cc1OCCN1CCCC1=O.Cl [Example 68, 4-(4-bromo-2-fluoroanilino)methoxy-7-(2-(2-oxpyrrolidin-1-yl)ethoxy)quinazoline hydrochloride]",substantially equivalent activity
4,"COc1cc2c(Nc3ccc(Cl)cc3F)ncnc2cc1OCCN1CCOCC1=O.Cl [Example 52, 4-(4-chloro-2-fluoroanilino)6-methoxy-7-(2-(3-oxomorpholino)ethoxy)quinazoline hydrochloride]",substantially equivalent activity
5,"COCC(=O)N(C)CCOc1cc2ncnc(Nc3ccc(Cl)cc3F)c2cc1OC.Cl [Example 51, 4-(4-chloro-2-fluoroanilino) methoxy-7-(2-([N-methyl-N-methoxyacetyl]amino)ethoxy)quinazoline hydrochloride]",substantially equivalent activity
6,"COc1cc2c(Nc3ccc(Cl)cc3F)ncnc2cc1OCC1OCCO1 [Example 6, 4-(4-chloro-2-fluoroanilino)-7-(1,3-dioxolan-2-ylmethoxy)-6-methoxyquinazoline]",substantially equivalent activity
7,"COc1cc2c(Nc3ccc(Cl)cc3F)ncnc2cc1OCCCS(C)(=O)=O [Example 16, 4-(4-chloro-2-fluoroanilino)-6-methoxy-7-(3-(methylsulphonyl)propoxy)quinazoline]",substantially equivalent activity
8,"COc1cc2c(Nc3ccc(Cl)cc3F)ncnc2cc1OCCOCCN1CCOCC1.Cl [Example 53, 4-(4-chloro-2-fluoroanilino)-6-methoxy-7-(22-morpholinoethoxy)ethoxy)quinazoline hydrochloride]",substantially equivalent activity
9,COc1cc2c(Nc3ccc(Cl)cc3F)ncnc2cc1OCCOCCN1CCN(C)CC1.Cl [Example 63],substantially equivalent activity
10,"COc1cc2c(Nc3ccc(Cl)cc3F)ncnc2cc1OCC#CCN1CCOCC1.Cl.O [Example 10, 4-(4-chloro-2-fluoroanilino)-6-methoxy-7-(4-morpholinobut-2-yn-1-yloxy)quinazoline hydrochloride hydrate]",substantially equivalent activity
11,"COc1cc2c(Nc3ccc(Cl)cc3F)ncnc2cc1OCCOCCN1CCCC1.Cl [Example 64, 4-(4-chloro-2-fluoroanilino)-6-methoxy-7-(2-(2-pyrrolidin-1-ylethoxy)ethoxy)quinazoline hydrochloride]",substantially equivalent activity
12,"COc1cc2c(Nc3ccc(Cl)cc3F)ncnc2cc1OCCCN1CC(C)OC(C)C1.Cl (stereo not drawn) [Example 55, 4-(4-chloro-2-fluoroanilino)7(3(2,6-dimethylmorpholino)propoxy)6-methoxyquinazoline hydrochloride]",substantially equivalent activity
13,COc1cc2c(Nc3ccc(Cl)cc3F)ncnc2cc1OCCCN(C)S(C)(=O)=O.Cl [Example 59],substantially equivalent activity
14,"COc1cc2c(Nc3ccc(Cl)cc3F)ncnc2cc1OCCCN1CCCC1=O.Cl [Example 47, 4-(4-chloro-2-fluoroanilino)-6-methoxy-7-(3-(2-oxopyrrolidin-1-yl)propoxy)quinazoline hydrochloride]",substantially equivalent activity
15,COc1cc2c(Nc3ccc(Br)cc3F)ncnc2cc1OCCCN1CCCC1=O.Cl [Example 48],substantially equivalent activity

# Now from value to molecule:
row,activity against VEGF and EGF receptor tyrosine kinases,SMILES
1,substantially equivalent activity,"COc1cc2c(Nc3ccc(Cl)cc3F)ncnc2cc1OC/C=C/CN1CCOCC1.Cl [Example 66, (E)-4-(4-chloro-2-fluoroanilino)-6-methoxy-7-(4-morpholinobut-2-en-1-yloxy)quinazoline hydrochloride]"
2,substantially equivalent activity,"COc1cc2c(Nc3ccc(Br)cc3F)ncnc2cc1OCCCN1CCC[C@H]1C(N)=O.Cl [Example 50, (S)-4-(4-bromo-2-fluoroanilino)-7-(3-(2-carbamoylpyrrolidin-1-yl)propoxy)6-methoxyquinazoline hydrochloride]"
3,substantially equivalent activity,"COc1cc2c(Nc3ccc(Cl)cc3F)ncnc2cc1OCCCN1CCC[C@H]1C(N)=O.Cl [Example 54, (S)-7-(3-(2-carbamoylpyrrolidin-1-yl)propoxy)4-(4-chloro-2-fluoroanilino)-6-methoxyquinazoline hydrochloride]"
4,substantially equivalent activity,"COc1cc2c(Nc3ccc(Br)cc3F)ncnc2cc1OCCCN(C)S(C)(=O)=O.Cl [Example 49, 4(4bromo-2-fluoroanilino)-6-methoxy-7-(3([N-methyl-N-methylsulphonyl]amino)propoxy)quinazoline hydrochloride]"
5,substantially equivalent activity,COc1cc2c(Nc3ccc(Cl)cc3F)ncnc2cc1OC/C=C/CN1CCCC1.Cl [Example 17]
6,substantially equivalent activity,"COc1cc2c(Nc3ccc(Br)cc3F)ncnc2cc1OCCN1CCOCC1=O.Cl [Example 67, 4-(4-bromo-2-fluoroanilino)-6-methoxy-7-(2-(3 oxomorpholino)ethoxy)quinazoline hydrochloride]"
7,substantially equivalent activity,"Cl.Fc1cc(Cl)ccc1NCOc1ncnc2cc(SCCCN3CCOCC3)ccc12 [Example 56, 4-(4-chloro-2-fluoroanilino)methoxy-7-(3-morpholinopropylthio)quinazoline hydrochloride]"

# Test system: not given
# Assay: not given
# Conditions: not given
row,SMILES,melting point [°C]
1,"COc1cc2c(Nc3ccc(Cl)cc3F)ncnc2cc1OCCNC(=O)OC(C)(C)C [Example 34, 7-(2-[N-tert-butoxycarbonylamino]ethoxy)4-(4-chloro-2-fluoroanilino)6-methoxyquinazoline]",190 to 191
2,"COc1cc2c(Nc3ccc(Br)cc3F)ncnc2cc1OCCCS(C)(=O)=O [Example 32, 4-(4-bromo-2-fluoroanilino)6-methoxy-7-(3-methylsulphonylpropoxy)quinazoline]",> 250
3,"COc1cc2c(Nc3ccc(Cl)cc3F)ncnc2cc1OCC#CCN1CCOCC1.Cl.O (hydrate or solvate) [Example 10, 4-(4-chloro-2-fluoroanilino)-6-methoxy-7-(4-morpholinobut-2-yn-1-yloxy)quinazoline hydrochloride hydrate]",175 to 178
4,"COCCOc1cc2ncnc(Nc3ccc(C)c(OC(C)=O)c3)c2cc1OC [Example 1, 4-(3-acetoxy-4-methylanilino)-6-methoxy-7-(2-methoxyethoxy)quinazoline]",180 to 183
5,"COc1cc2c(Nc3ccc(Cl)cc3F)ncnc2cc1OCCN1C(=O)CCCC1=O [Example 35, 4-(4-chloro-2-fluoroanilino)-7-(2-(2,6-dioxopiperidino)ethoxy)-6-methoxyquinazoline]",202 to 203

# Further lines, results first:
row,melting point [°C],SMILES
1,206 to 208,COc1cc2ncnc(Nc3ccc(C)c(O)c3)c2c([N+](=O)[O-])c1OC.Cl
2,227 to 230,"COc1cc2c(Nc3ccc(Cl)cc3F)ncnc2cc1OCCS(C)(=O)=O [Example 30, 4-(4-chloro-2-fluoroanilino)-6-methoxy-7-(2-methylsulphonylethoxy)quinazoline]"
3,> 250,"COc1cc2c(Nc3ccc(Cl)cc3F)ncnc2cc1OCCCS(C)(=O)=O (as salt: hydrochloride) [Example 16, 4-(4-chloro-2-fluoroanilino)-6-methoxy-7-(3-(methylsulphonyl)propoxy)quinazoline]"
